Results published in paper PMC12867150, “A fungi-derived cyclic peptide enhances Th9-mediated antitumor immunity by targeting ZAP70 and SREBP1” (The Journal of Clinical Investigation, 2025).
“And” between values parts separate entries of the source, which are not always exact repeats. Equal entries are not always repeated.

Columns and labels:
[1] = system: transferred CD45.1+ Th9 cells; assay: Cytokines and granzyme B/perforin in transferred CD45.1+ Th9 cells (Figure 3G, S4A-C); format: in vivo, mouse; set-up: IFN-γ expression / TNF-α expression / Expression of IFN-γ of transferred CD45.1⁺ OT-II Th9 cells in tumors / Expression of TNF-α of transferred CD45.1⁺ OT-II Th9 cells in tumors: unit not given here; settings: for Expression of GzmB+Perforin+ of transferred CD45.1⁺ OT-II Th9 cells in tumor: Supplemental Figure 4C; for Expression of IFN-γ of transferred CD45.1⁺ OT-II Th9 cells in tumors: Supplemental Figure 4A; for Expression of TNF-α of transferred CD45.1⁺ OT-II Th9 cells in tumors: Supplemental Figure 4B
Experimental: C57BL/6 mice were subcutaneously injected with 5 × 10^5 B16-OVA melanoma cells. Five days after tumor implantation, mice received an intravenous infusion of 2 × 10^6 in vitro–differentiated Th9 cells (cultured for 5 days), which were derived from OT-II CD45.1 donor mice, accompanied by 4 × 10^5 OVA peptide–pulsed DCs via the tail vein. To enhance T cell engraftment and facilitate lymphodepletion, a single intraperitoneal injection of cyclophosphamide (200 mg/kg, Sigma, catalog C0768) was administered 1 day prior to T cell transfer. Mice were euthanized at designated time points for the collection and analysis of spleens, tumor-draining lymph nodes, and tumor tissues.
Details regarding staining panels (human and mouse), reagents (including clones and catalog numbers), acquisition settings, compensation/controls, and analysis procedures are provided in Supplemental Methods.
BioLegend, Cat. No. 422301 or Mouse TruStain FcX™, BioLegend, Cat. No. 101319) for 10 minutes at 4°C. For surface marker detection, cells were stained with fluorochrome-conjugated monoclonal antibodies in 96-well V-bottom plates and incubated on ice for 30 minutes. After staining, cells were washed twice and resuspended in FACS buffer for analysis.
Prior to intracellular cytokine staining, cells were restimulated for 4 hours with PMA (Absin, Cat. No. abs9107), ionomycin (Sigma-Aldrich, Cat. No. I0634), and brefeldin A (MedChemExpress, Cat. No. HY-16592). For intracellular cytokine staining, cells were first surface-stained as described above, then fixed and permeabilized using the BD Cytofix/Cytoperm™ kit (BD Biosciences, Cat. No. 554714) according to the manufacturer ’s protocol. Intracellular proteins were stained with directly conjugated antibodies targeting IL-9, IL-17a, IL-4, IFN-γ, TNF-α, FOXP3, p-ZAP70, Perforin, and […]
Antibodies used for mouse samples included those against IL-9 (PE, clone RM9A4, Biolegend, Cat. No. 514104), IFN-γ (PE, clone XMG1.2, Biolegend, Cat. No.
Cat. No. 103138), CD4 (APC/Cy7, clone E-AB-F1353UJ, Elabscience, Cat. No.
AF18028), CD8α (PerCP/Cy5.5, clone E-AB-F1104UJ, Elabscience, Cat. No. […]
clone E-AB-F1187UH, Elabscience, Cat. No. AF19854), TNF-α (BV421, clone MP6-XT22, Biolegend, Cat. No. 506328), FOXP3 (PE, clone FJK-16s, eBioscience, Cat. No.
Perforin (APC, clone S16009A, Biolegend, Cat. No. 154303) and Granzyme B (APC, clone QA16A02, Biolegend, Cat. No. 372203). For human samples, antibodies against CD4 (PerCP/Cy5.5, clone RPA-T4, Biolegend, Cat. No. 300530; APC/Cy7, clone OKT4, Biolegend, Cat. No. 317418), CD19 (APC/Cy7, clone SJ25C1, Biolegend, Cat.
No. 363009), IFN-γ (PE, clone 4S.B3, Biolegend, Cat. No. 502509), IL-9 (PE, clone

Raji-luciferase tumor = assay: Raji-luciferase xenograft, survival (Figure 8L); format: in vivo, NSG mice; settings: EpA-treated human Th9 CAR T cells 2 × 10^6 i.v.; n = 5; result in words
Excerpt: Representative plots (A) and quantification (B) (n = 4). (C) Quantitative PCR analysis of IL9, IRF4, and SPI1 mRNA expression in human Th9 cells (n = 3). (D) Flow-cytometric analysis of mitochondrial membrane potential in human Th9 cells (n = 3). (E) Luciferase-based assay analysis of intracellular ATP levels in human Th9 cells (n = 5). (F) Flow-cytometric analysis of phosphorylated ZAP70 in human Th9 cells (n = 3). (G) Flow-cytometric analysis of TNF-α expression in human Th9 cells (n = 4). (H) Cytotoxicity assay of EpA-treated or control CD19 CAR Th9 cells against Raji lymphoma target cells at indicated effector-to-target (E/T) ratios (n = 3). (I) Schematic diagram of the in vivo Raji-luciferase xenograft model in NSG mice receiving control or EpA-treated human Th9 CAR T cells. (J and K) Representative bioluminescence imaging (J) and quantification of tumor radiance (K) in NSG mice at indicated time points after adoptive transfer. […] Statistical significance was determined using 2-tailed unpaired Student’s t test (B–H), 2-way ANOVA followed by Šidák’s post hoc test (K), and log-rank test (L). […]
For xenograft models, M-NSG mice were intravenously inoculated with 1 × 10^6 Raji-CD19 tumor cells. […] Tumor progression and immune cell infiltration were subsequently monitored according to experimental endpoints.

[2] = transferred CD45.1+ Th9, spleen, individual mice, n = 4
[3] = transferred cells, tumor, result in words

anteiso-C15 Leu7 surfactin [EpA]
GzmB+ PRF1+ gate number ([1]; CD45.1+ T cells in tumors, representative flow plot, Figure S4C): 34.1 | GzmB and Perforin expression [1, 2]: 68.8 and 68 and 57.8 and 55.7 | IFN-γ expression [1, 2]: 3.05 and 4.37 and 6.82 and 2.23 | TNF-α expression [1, 2]: 23.2 and 21 and 17.5 and 23.6 | IFN-γ, TNF-α, granzyme B and perforin ([1]; transferred cells, spleen, result in words): markedly increased expression | IFN-γ expression [1, 3]: elevated | TNF-α levels [1, 3]: remained unchanged | granzyme B+ perforin+ frequency [1, 3]: significantly higher | Expression of GzmB+Perforin+ of transferred CD45.1⁺ OT-II Th9 cells in tumor ([1]; tumor, replicate 1): 20.5 | Expression of GzmB+Perforin+ of transferred CD45.1⁺ OT-II Th9 cells in tumor ([1]; tumor, replicate 2): 18.9 | Expression of GzmB+Perforin+ of transferred CD45.1⁺ OT-II Th9 cells in tumor ([1]; tumor, replicate 3): 25.9 | Expression of GzmB+Perforin+ of transferred CD45.1⁺ OT-II Th9 cells in tumor ([1]; tumor, replicate 4): 34.1 | Expression of IFN-γ of transferred CD45.1⁺ OT-II Th9 cells in tumors ([1]; replicate 1): 386 | Expression of IFN-γ of transferred CD45.1⁺ OT-II Th9 cells in tumors ([1]; replicate 2): 392 | Expression of IFN-γ of transferred CD45.1⁺ OT-II Th9 cells in tumors ([1]; replicate 3): 420 | Expression of IFN-γ of transferred CD45.1⁺ OT-II Th9 cells in tumors ([1]; replicate 4): 261 | Expression of TNF-α of transferred CD45.1⁺ OT-II Th9 cells in tumors ([1]; replicate 1): 916 | Expression of TNF-α of transferred CD45.1⁺ OT-II Th9 cells in tumors ([1]; replicate 2): 557 | Expression of TNF-α of transferred CD45.1⁺ OT-II Th9 cells in tumors ([1]; replicate 3): 913 | Expression of TNF-α of transferred CD45.1⁺ OT-II Th9 cells in tumors ([1]; replicate 4): 544 | survival (Raji-luciferase tumor): significantly prolonged survival
